This assay concerns Glucokinase known as hexokinase IV (human GK isoform 1, pancreas form and human GK isoform 2, liver form). Kind of assay: Glucokinase enzymatic activity assay (G6PDH-coupled, NADH absorbance at 340 nm). Conditions: 5 mM glucose, 1 mM ATP, 37 nM GK, 10 min at room temperature. It is filed as biochemical. In a few lines: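 His-tagged human GK isoform 1 (pancreas) or 2 (liver), E. coli-expressed and Ni-purified, 37 nM, with 5 mM glucose, 1 mM ATP, 1 mM NAD and G6PDH in 25 mM Hepes/KCl, 2 mM MgCl2, 1 mM DTT. Ran 10 min at room temperature, read as NADH at 340 nm. AC1.5 is the compound concentration giving 1.5-fold activity.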
For `O=C(C[C@@H]1CSC(c2cc3cccc(NC4CCOCC4)c3[nH]2)=N1)N1CCOCC1` [Example 93, 1-morpholin-4-yl-2-{(R)-2-[7-(tetrahydro-pyran-4-ylamino)-1H-indol-2-yl]-4,5-dihydro-thiazol-4-yl}-ethanone], the “AC1.5 (the compound concentration at which the enzymatic activity is increased by 1.5 times)” value is reported as 239 nM.

Consider `CNC(=O)C[C@@H]1CSC(c2cc3cc(Cl)cc(NC4CCOCC4)c3[nH]2)=N1` [Example 82, 2-{(R)-2-[5-chloro-7-(tetrahydro-pyran-4-ylamino)-1H-indol-2-yl]-4,5-dihydro-thiazol-4-yl}-N-methyl-acetamide], for which the “AC1.5 (the compound concentration at which the enzymatic activity is increased by 1.5 times)” value stood at 22 nM.

Turning to `COC(=O)C[C@@H]1CSC(c2cc3cc(Oc4cccnc4)cc(NC4CCOCC4)c3[nH]2)=N1` [Example 58, {(R)-2-[5-(pyridin-3-yloxy)-7-(tetrahydro-pyran-4-ylamino)-1H-indol-2-yl]-4,5-dihydro-thiazol-4-yl}-acetic acid methyl ester], the “AC1.5 (the compound concentration at which the enzymatic activity is increased by 1.5 times)” value amounted to 14 nM.

On to `O=C1CN(CC[C@@H]2CSC(c3cc4cc(Cl)cc(NC5CCCC5)c4[nH]3)=N2)CCN1` [Example 102], for which the “AC1.5 (the compound concentration at which the enzymatic activity is increased by 1.5 times)” value turned out to be 7 nM.

On to `CN(C)CC[C@@H]1CSC(c2cc3cc(F)cc(NC4CCCC4)c3[nH]2)=N1` [Example 127, cyclopentyl-{2-[(R)-4-(2-dimethylamino-ethyl)-4,5-dihydro-thiazol-2-yl]-5-fluoro-1H-indol-7-yl}-amine], for which the “AC1.5 (the compound concentration at which the enzymatic activity is increased by 1.5 times)” value turned out to be 21 nM.

On to `CN1CCN(C(=O)CC[C@@H]2CSC(c3cc4cc(Cl)cc(NC5CCCC5)c4[nH]3)=N2)CC1` [Example 154, 3-[(R)-2-(5-chloro-7-cyclopentylamino-1H-indol-2-yl)-4,5-dihydro-thiazol-4-yl]-1-(4-methyl-piperazin-1-yl)-propan-1-one], for which the “AC1.5 (the compound concentration at which the enzymatic activity is increased by 1.5 times)” value came out at 14 nM.

Take `O=C(O)C[C@@H]1CSC(c2cc3cc(Oc4cccnc4)cc(NC4CCCC4)c3[nH]2)=N1` [Example 57, {(R)-2-[7-cyclopentylamino-5-(pyridin-3-yloxy)-1H-indol-2-yl]-4,5-dihydro-thiazol-4-yl}-acetic acid]: the “AC1.5 (the compound concentration at which the enzymatic activity is increased by 1.5 times)” value is 21 nM.

On to `O=C(O)CC[C@@H]1CSC(c2cc3cc(OC(F)(F)F)cc(NC4CCCC4)c3[nH]2)=N1` [Example 169, 3-[(R)-2-(7-cyclopentylamino-5-trifluoromethoxy-1H-indol-2-yl)-4,5-dihydro-thiazol-4-yl]-propionic acid], for which the “AC1.5 (the compound concentration at which the enzymatic activity is increased by 1.5 times)” value is recorded as 9 nM.

In the case of `O=C(O)C[C@@H]1CSC(c2cc3cc(Br)cc(NC4CCOCC4)c3[nH]2)=N1` [Example 35, {(R)-2-[5-bromo-7-(tetrahydro-pyran-4-ylamino)-1H-indol-2-yl]-4,5-dihydro-thiazol-4-yl}-acetic acid], the “AC1.5 (the compound concentration at which the enzymatic activity is increased by 1.5 times)” value came to 6 nM.

For the compound `CN(C)C1CCN(CC[C@@H]2CSC(c3cc4cc(Cl)cc(NC5CCCC5)c4[nH]3)=N2)C1` (stereo partly drawn) [Example 103, (5-chloro-2-{(R)-4-[2-(3-dimethylamino-pyrrolidin-1-yl)-ethyl]-4,5-dihydro-thiazol-2-yl}-1H-indol-7-yl)-cyclopentyl-amine], the “AC1.5 (the compound concentration at which the enzymatic activity is increased by 1.5 times)” value came out at 16 nM.

Regarding `OC[C@@H]1CSC(c2cc3cc(Cn4ccnc4)cc(NC4CCCC4)c3[nH]2)=N1` [Example 22, [(R)-2-(7-cyclopentylamino-5-imidazol-1-ylmethyl-1H-indol-2-yl)-4,5-dihydro-thiazol-4-yl}-methanol], the “AC1.5 (the compound concentration at which the enzymatic activity is increased by 1.5 times)” value amounted to 112 nM.

With `O=C(C[C@@H]1CSC(c2cc3cc(Cl)cc(NC4CCCC4)c3[nH]2)=N1)NCCCN1CCOCC1` [Example 75, 2-[(R)-2-(5-chloro-7-cyclopentylamino-1H-indol-2-yl)-4,5-dihydro-thiazol-4-yl]-N-(3-morpholin-4-yl-propyl)-acetamide], the “AC1.5 (the compound concentration at which the enzymatic activity is increased by 1.5 times)” value is 21 nM.

With `O=S1(=O)CCN(CC[C@@H]2CSC(c3cc4cc(Cl)cc(NC5CCCC5)c4[nH]3)=N2)CC1` [Example 105, (5-chloro-2-{(R)-4-[2-(1,1-dioxo-thiomorpholin-4-yl)-ethyl]-4,5-dihydro-thiazol-2-yl}-1H-indol-7-yl)-cyclopentyl-amine], the “AC1.5 (the compound concentration at which the enzymatic activity is increased by 1.5 times)” value was 6 nM.

On to `c1cc(NC2CCCC2)c2[nH]c(C3=N[C@H](CN4CCOCC4)CS3)cc2c1` [Example 16, cyclopentyl-[2-((R)-4-morpholin-4-ylmethyl-4,5-dihydro-thiazol-2-yl)-1H-indol-7-yl]-amine], for which the “AC1.5 (the compound concentration at which the enzymatic activity is increased by 1.5 times)” value was 64 nM.

Turning to `CS(=O)(=O)Cc1cc(NC2CCCC2)c2[nH]c(C3=N[C@H](CO)CS3)cc2c1` [Example 24, [(R)-2-(7-cyclopentylamino-5-methanesulfonylmethyl-1H-indol-2-yl)-4,5-dihydro-thiazol-4-yl]-methanol], the “AC1.5 (the compound concentration at which the enzymatic activity is increased by 1.5 times)” value is recorded as 32 nM.

For `CNC(=O)C[C@@H]1CSC(c2cc3cc(OC)cc(NC4CCCC4)c3[nH]2)=N1` [Example 87, 2-[(R)-2-(7-cyclopentylamino-5-methoxy-1H-indol-2-yl)-4,5-dihydro-thiazol-4-yl]-N-methyl-acetamide], the “AC1.5 (the compound concentration at which the enzymatic activity is increased by 1.5 times)” value is listed as 10 nM.

Regarding `c1cc(NC2CCCC2)c2[nH]c(C3=N[C@H](CN4CCCC4)CS3)cc2c1` [Example 15, cyclopentyl-[2-((R)-4-pyrrolidin-1-ylmethyl-4,5-dihydro-thiazol-2-yl)-1H-indol-7-yl]-amine], the “AC1.5 (the compound concentration at which the enzymatic activity is increased by 1.5 times)” value was found to be 400 nM.

As for `O=C(C[C@@H]1CSC(c2cc3cccc(NC4CCCC4)c3[nH]2)=N1)N1CCOCC1` [Example 91, 2-[(R)-2-(7-cyclopentylamino-1H-indol-2-yl)-4,5-dihydro-thiazol-4-yl]-1-morpholin-4-yl-ethanone], the “AC1.5 (the compound concentration at which the enzymatic activity is increased by 1.5 times)” value is recorded as 72 nM.

Regarding `COc1cc(NC2CCOCC2)c2[nH]c(C3=N[C@H](CCN4CCN(C(=O)CO)CC4)CS3)cc2c1` [Example 147, 2-hydroxy-1-[4-(2-{(R)-2-[5-methoxy-7-(tetrahydro-pyran-4-ylamino)-1H-indol-2-yl]-4,5-dihydro-thiazol-4-yl}-ethyl)-piperazin-1-yl]ethanone], the “AC1.5 (the compound concentration at which the enzymatic activity is increased by 1.5 times)” value came out at 52 nM.

As for `O=S1(=O)CCN(CC[C@@H]2CSC(c3cc4cc(F)cc(NC5CCOCC5)c4[nH]3)=N2)CC1` [Example 137, (2-{(R)-4-[2-(1,1-dioxo-thiomorpholin-4-yl)-ethyl]-4,5-dihydro-thiazol-2-yl}-5-fluoro-1H-indol-7-yl)-(tetrahydropyran-4-yl)-amine], the “AC1.5 (the compound concentration at which the enzymatic activity is increased by 1.5 times)” value is on record as 23 nM.

Consider `OC[C@@H]1CSC(c2cc3cccc(NC4CCOC4)c3[nH]2)=N1` (stereo partly drawn) [Example 3, {(R)-2-[7-(tetrahydro-furan-3-ylamino)-1H-indol-2-yl]-4,5-dihydro-thiazol-4-yl}-methanol], for which the “AC1.5 (the compound concentration at which the enzymatic activity is increased by 1.5 times)” value is recorded as 184 nM.

For `NCC[C@@H]1CSC(c2cc3cc(F)cc(NC4CCCC4)c3[nH]2)=N1` [Example 124, {2-[(R)-4-(2-amino-ethyl)-4,5-dihydro-thiazol-2-yl]-5-fluoro-1H-indol-7-yl}-cyclopentyl-amine], the “AC1.5 (the compound concentration at which the enzymatic activity is increased by 1.5 times)” value worked out at 24 nM.

Consider `OC[C@@H]1CSC(c2cc3cc(Cl)cc(NC4CCOCC4)c3[nH]2)=N1` [Example 8, {(R)-2-[5-chloro-7-(tetrahydro-pyran-4-ylamino)-1H-indol-2-yl]-4,5-dihydro-thiazol-4-yl}-methanol], for which the “AC1.5 (the compound concentration at which the enzymatic activity is increased by 1.5 times)” value is recorded as 32 nM.

For `CS(=O)(=O)CC[C@@H]1CSC(c2cc3cc(F)cc(NC4CCOCC4)c3[nH]2)=N1` [Example 138, (5-fluoro-2-[(R)-4-(2-methanesulfonyl-ethyl)-4,5-dihydro-thiazol-2-yl]-1H-indol-7-yl)-(tetrahydro-pyran-4-yl)-amine], the “AC1.5 (the compound concentration at which the enzymatic activity is increased by 1.5 times)” value is given as 36 nM.

For `CC(=O)N1CCN(CC[C@@H]2CSC(c3cc4cccc(Oc5ccccc5)c4[nH]3)=N2)CC1` [Example 175, 1-(4-{2-[(R)-2-(7-phenoxy-1H-indol-2-yl)-4,5-dihydro-thiazol-4-yl]-ethyl}-piperazin-1-yl)-ethanone], the “AC1.5 (the compound concentration at which the enzymatic activity is increased by 1.5 times)” value is 71 nM.

Consider `CCOC(=O)CC[C@@H]1CSC(c2cc3cc(Br)cc(NC4CCCC4)c3[nH]2)=N1` [Example 162, 3-[(R)-2-(5-bromo-7-cyclopentylamino-1H-indol-2-yl)-4,5-dihydro-thiazol-4-yl]-propionic acid ethyl ester], for which the “AC1.5 (the compound concentration at which the enzymatic activity is increased by 1.5 times)” value is reported as 21 nM.

In the case of `COC(=O)C[C@@H]1CSC(c2cc3cc(OC)cc(NC4CCOCC4)c3[nH]2)=N1` [Example 50, {(R)-2-[5-methoxy-7-(tetrahydro-pyran-4-ylamino)-1H-indol-2-yl]-4,5-dihydro-thiazol-4-yl}-acetic acid methyl ester], the “AC1.5 (the compound concentration at which the enzymatic activity is increased by 1.5 times)” value was 28 nM.

In the case of `O=C(C[C@@H]1CSC(c2cc3cc(Cl)cc(NC4CCCC4)c3[nH]2)=N1)N1CCCCC1` [Example 81, 2-[(R)-2-(5-chloro-7-cyclopentylamino-1H-indol-2-yl)-4,5-dihydro-thiazol-4-yl]-1-piperidin-1-yl-ethanone], the “AC1.5 (the compound concentration at which the enzymatic activity is increased by 1.5 times)” value stood at 6 nM.

For the compound `c1cc(NC2CCCC2)c2[nH]c(C3=N[C@H](Cc4nc(N5CCCCC5)no4)CS3)cc2c1` [Example 173, cyclopentyl-{2-[(R)-4-(3-piperidin-1-yl-[1,2,4]oxadiazol-5-ylmethyl)-4,5-dihydro-thiazol-2-yl]-1H-indol-7-yl}-amine], the “AC1.5 (the compound concentration at which the enzymatic activity is increased by 1.5 times)” value was 114 nM.

Values taken from patent US8309586B2, “Glucokinase activators and pharmaceutical compositions containing the same as an active ingredient” (LG Life Sciences Ltd., priority 2007, dated 2012).
